Patent US9840513B2 (AbbVie S.à.r.l., priority 2015, dated 2017)
pEC50: −log10 of the molar value.

Columns and labels:
[1] = molecular target: T1, F508delCFTR cell surface expression in CFBE41o-F508delCFTR-HRP cells (Homo sapiens, UniProt P13569, DEL508-508); experiment: Cell Surface Expression-Horse Radish Peroxidase (CSE-HRP) Assay; type: cell-based; conditions: for pEC50: CFBE41o-F508delCFTR-HRP cells, 18-24 hours at 33° C., 8-point curve, highest concentration 20 μM; for Maximum % activity (%): maximum at any tested concentration, normalized to on-plate positive control (3 μM)
T1 construct: fused on or other part: Horseradish peroxidase (HRP) reporter inserted in the fourth exofacial (extracellular) loop of CFTR; expression is doxycycline-inducible
Method in brief: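 Correctors incubated 18-24 h at 33 °C on doxycycline-induced (0.5 μg/mL, 72 h) CFBE41o-F508delCFTR-HRP cells, 3-fold series from 20 μM. After DPBS washes, luminol luminescence read; activity expressed relative to DMSO and a 3 μM positive control, EC50 fitted from triplicate plates.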

[2] = molecular target: T2, F508delCFTR in primary hBE cells with F508del/F508del CFTR mutation (Homo sapiens, UniProt P13569, DEL508-508); experiment: Transepithelial Clamp Circuit on Human Bronchial Epithelial Cells Conductance Assay (hBE-TECC); type: cell-based; conditions: for pEC50: primary hBE cells F508del/F508del, 18-24 hours at 37° C., equivalent short circuit current, 6 concentrations
T2 construct: cells isolated from CF patients with the homozygous mutation; endogenous in cells; host or cells: primary human bronchial epithelial (hBE) cells from F508del/F508del CF patients
Description: Transepithelial Clamp Circuit on Human Bronchial Epithelial Cells Conductance Assay:
A cell based assay using the primary human bronchial epithelial cells (hBE) was used as a secondary assay to test novel F508delCFTR correctors for their activity on primary hBE cells with F508del/F508del CFTR mutation. The assay used a TECC-24 (Transepithelial Clamp Circuit for 24 wells) instrument that measures the functionality of the mutated channel by measuring the equivalent short circuit current (Ieq) generated by the polarized epithelial cells. The instrument works by measuring the transepithelial potential difference (Vt) and transepithelial resistance (Rt) in an open circuit format, and the Ieq is calculated by using Ohms law (Ieq=Vt/Rt). The assay was run in a 24-well format and all 24-wells were measured at the same time point giving a higher throughput for this assay.
Primary human bronchial epithelial (hBE) cells from F508del/F508delCFTR patients were expanded from 1×10^6 to 250×10^6 cells (Neuberger T, Burton B, Clark H and VanGoor F; Cystic Fibrosis, Methods in Mole Biol 741; eds. Amaral M D and Kunzelmann K, 2011). For this purpose, cells isolated from CF patients with the homozygous mutation were seeded onto 24 well Corning (Cat #3378) filter plates that were coated with 3T3 conditioned media and grown at an air-liquid interface for 35 days using an Ultroser® G supplemented differentiation media. Apical surface mucus was removed 72 hours before the experiment using 3 mM dithiothreitol (DTT) in phosphate buffered saline (PBS). The apical surface was washed again 24 hours before the experiment using PBS. The cells were incubated with the desired dose response of the corrector compounds 18-24 hours at 37° C., 5% CO2. The corrector compounds are only added on the basolateral side of the epithelial cells.
On the day of measuring the corrector activity on the TECC, the cells were switched into a bicarbonate and serum free F-12 Coon's medium and allowed to equilibrate for 90 minutes in a CO2 free incubator. At the time of measurement, the apical and basolateral sides of the filter were bathed with the F-12 Coon's modification media (with 20 mM 4-(2-hydroxyethyl)-1-piperazineethanesulfonic acid (HEPES), pH 7.4 (using 1 M tris(hydroxymethyl)aminomethane (Tris)), and the measurements were made at 36.5° C. Transepithelial voltage (Vt) and transepithelial resistance (Rt) were measured using a 24 channel transepithelial current clamp (TECC-24). Current responses to the sequential addition of benzamil (apical 6 μM addition; for inhibiting epithelial ENaC channel), forskolin (apical and basolateral 10 μM addition; for activating the CFTR channel), control potentiator (N-(3-carbamoyl-5,5,7,7-tetramethyl-4,7-dihydro-5H-thieno[2,3-c]pyran-2-yl)-1H-pyrazole-5-carboxamide; apical and basolateral […] addition; for potentiating the CFTR channel) and bumetanide (basolateral 20 μM addition; for inhibiting the Na:2Cl:K co-transporter, an indirect measure of inhibiting the Cl-secretion driven by CFTR channel) were measured.
All plates contained negative controls (dimethyl sulfoxide, DMSO) which coupled with the control potentiator (N-(3-carbamoyl-5,5,7,7-tetramethyl-4,7-dihydro-5H-thieno[2,3-c]pyran-2-yl)-1H-pyrazole-5-carboxamide) sets the null response and positive controls (3 μM of 3-[(2R,4R)-4-({[1-(2,2-difluoro-1,3-benzodioxol-5-yl)cyclopropyl]carbonyl}amino)-7-methoxy-3,4-dihydro-2H-chromen-2-yl]benzoic acid) coupled with the control potentiator sets the 100% response to measure the correction of the mutated CFTR channel. The maximum percent activity is reported relative to the positive control value.
The % activity measured at each of the 6 test concentrations of the test compound was normalized to the on-plate positive control using the following formula: % activity=[[…]]*100 […]

[3] = relative to positive control (3 μM) coupled with control potentiator

T2 sequence (P13569 with tags, fused parts or gaps DEL508-508): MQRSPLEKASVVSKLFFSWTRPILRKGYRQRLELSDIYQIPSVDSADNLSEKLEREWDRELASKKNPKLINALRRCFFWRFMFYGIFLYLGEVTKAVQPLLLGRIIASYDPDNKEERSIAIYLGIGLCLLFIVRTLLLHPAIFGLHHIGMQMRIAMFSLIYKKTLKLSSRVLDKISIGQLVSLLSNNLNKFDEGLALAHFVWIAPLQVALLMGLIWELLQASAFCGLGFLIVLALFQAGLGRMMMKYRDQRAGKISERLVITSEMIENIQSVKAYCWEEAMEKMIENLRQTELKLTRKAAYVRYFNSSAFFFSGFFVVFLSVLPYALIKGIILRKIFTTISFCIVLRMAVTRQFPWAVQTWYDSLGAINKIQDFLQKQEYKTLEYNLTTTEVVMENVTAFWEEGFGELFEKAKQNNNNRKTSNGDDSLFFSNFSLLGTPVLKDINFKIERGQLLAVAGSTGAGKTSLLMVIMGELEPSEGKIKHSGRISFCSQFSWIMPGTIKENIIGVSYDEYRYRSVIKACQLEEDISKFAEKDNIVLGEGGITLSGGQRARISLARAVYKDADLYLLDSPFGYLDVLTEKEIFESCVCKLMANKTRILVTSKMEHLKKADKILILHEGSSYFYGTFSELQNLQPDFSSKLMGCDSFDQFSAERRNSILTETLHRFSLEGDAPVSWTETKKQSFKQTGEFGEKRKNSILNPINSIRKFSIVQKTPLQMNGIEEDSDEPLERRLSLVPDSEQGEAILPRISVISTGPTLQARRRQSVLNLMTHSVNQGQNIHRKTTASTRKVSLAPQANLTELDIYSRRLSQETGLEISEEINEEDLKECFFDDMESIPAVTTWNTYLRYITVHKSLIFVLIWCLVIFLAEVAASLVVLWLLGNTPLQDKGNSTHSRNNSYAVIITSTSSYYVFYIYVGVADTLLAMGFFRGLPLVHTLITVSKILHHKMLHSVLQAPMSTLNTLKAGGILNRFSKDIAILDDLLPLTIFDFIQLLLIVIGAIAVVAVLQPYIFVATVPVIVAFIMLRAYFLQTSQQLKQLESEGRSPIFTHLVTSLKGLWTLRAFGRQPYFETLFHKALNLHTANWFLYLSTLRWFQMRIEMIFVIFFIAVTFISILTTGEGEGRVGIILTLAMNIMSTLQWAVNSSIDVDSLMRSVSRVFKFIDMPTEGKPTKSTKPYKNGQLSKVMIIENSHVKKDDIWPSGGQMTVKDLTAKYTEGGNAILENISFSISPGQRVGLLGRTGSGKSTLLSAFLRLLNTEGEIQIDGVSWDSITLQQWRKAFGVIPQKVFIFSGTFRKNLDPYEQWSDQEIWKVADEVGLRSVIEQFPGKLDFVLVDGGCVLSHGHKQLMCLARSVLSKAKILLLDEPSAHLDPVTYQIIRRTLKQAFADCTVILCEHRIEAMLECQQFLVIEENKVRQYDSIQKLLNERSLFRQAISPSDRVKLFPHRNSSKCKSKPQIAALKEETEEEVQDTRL
T1 sequence (P13569 with tags, fused parts or gaps DEL508-508 limits assumed): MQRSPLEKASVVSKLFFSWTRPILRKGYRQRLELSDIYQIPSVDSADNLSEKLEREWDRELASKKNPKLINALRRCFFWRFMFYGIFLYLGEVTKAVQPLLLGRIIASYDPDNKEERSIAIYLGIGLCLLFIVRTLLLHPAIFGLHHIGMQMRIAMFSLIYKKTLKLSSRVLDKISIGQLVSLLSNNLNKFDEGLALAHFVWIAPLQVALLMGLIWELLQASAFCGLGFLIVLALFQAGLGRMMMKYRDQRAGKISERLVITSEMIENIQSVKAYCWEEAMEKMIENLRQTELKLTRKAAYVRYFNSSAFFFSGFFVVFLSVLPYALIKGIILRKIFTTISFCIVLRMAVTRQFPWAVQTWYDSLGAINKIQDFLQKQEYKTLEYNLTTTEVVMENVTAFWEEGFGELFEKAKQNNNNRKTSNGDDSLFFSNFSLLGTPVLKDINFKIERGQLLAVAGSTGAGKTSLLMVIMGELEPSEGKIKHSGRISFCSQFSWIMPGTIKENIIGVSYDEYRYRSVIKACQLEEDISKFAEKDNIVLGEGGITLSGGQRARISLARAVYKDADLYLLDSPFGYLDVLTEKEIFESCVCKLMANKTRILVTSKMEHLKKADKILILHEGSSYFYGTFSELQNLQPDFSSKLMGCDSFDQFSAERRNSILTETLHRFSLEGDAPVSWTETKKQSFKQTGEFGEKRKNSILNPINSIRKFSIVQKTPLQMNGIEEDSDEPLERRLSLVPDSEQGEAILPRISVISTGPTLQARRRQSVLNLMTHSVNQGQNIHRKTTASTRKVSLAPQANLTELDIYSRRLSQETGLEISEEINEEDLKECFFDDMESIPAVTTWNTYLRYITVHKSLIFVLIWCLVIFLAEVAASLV
T1 sequence (P13569 919-1480 limits assumed, stated change not applied): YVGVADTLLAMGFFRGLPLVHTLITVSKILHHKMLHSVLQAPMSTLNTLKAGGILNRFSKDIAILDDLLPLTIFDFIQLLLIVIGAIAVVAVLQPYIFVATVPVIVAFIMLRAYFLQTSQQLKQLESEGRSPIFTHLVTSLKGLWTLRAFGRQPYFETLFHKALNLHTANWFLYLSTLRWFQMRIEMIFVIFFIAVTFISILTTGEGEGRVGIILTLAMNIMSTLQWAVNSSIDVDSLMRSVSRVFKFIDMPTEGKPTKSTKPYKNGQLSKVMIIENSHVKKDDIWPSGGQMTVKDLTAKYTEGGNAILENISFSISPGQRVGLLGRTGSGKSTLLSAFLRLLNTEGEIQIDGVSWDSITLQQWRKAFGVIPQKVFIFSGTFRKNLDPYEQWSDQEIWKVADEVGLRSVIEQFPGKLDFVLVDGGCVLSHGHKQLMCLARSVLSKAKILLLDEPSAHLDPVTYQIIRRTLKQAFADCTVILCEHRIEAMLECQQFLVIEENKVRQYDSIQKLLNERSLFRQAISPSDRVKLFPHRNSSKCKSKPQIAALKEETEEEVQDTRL

Row | pEC50 [1] | Maximum % activity (%) [1] [%] | pEC50 [2] | Maximum % activity (%) [2, 3] [%] | Maximum % activity (%) ([2]; testing concentration 10 μM) | Compound
1 | 6.18 | 92 | 6.45 | 45 |  | CC1(c2cc3cc(NC(=O)[C@@]4(C)COc5cc6c(cc54)OC(F)(F)O6)c(F)cc3n2C[C@@H](O)CO)COC1 [Example 171, (7R)—N-{1-[(2R)-2,3-dihydroxypropyl]-6-fluoro-2-(3-methyloxetan-3-yl)-1H-indol-5-yl}-2,2-difluoro-7-methyl-6,7-dihydro-2H-furo[2,3-f][1,3]benzodioxole-7-carboxamide]
2 | 7.52 | 150 | 7.96 | 98 |  | COc1ccc2c(c1)O[C@@H](c1ccc(C(=O)O)cc1)C[C@H]2NC(=O)[C@@]1(C)COc2cc3c(cc21)OC(F)(F)O3 [Example 20, 4-[(2R,4R)-4-{[(7R)-2,2-difluoro-7-methyl-6,7-dihydro-2H-furo[2,3-f][1,3]benzodioxole-7-carbonyl]amino}-7-methoxy-3,4-dihydro-2H-1-benzopyran-2-yl]benzoic acid]
3 | 7.36 | 136 | 8.30 | 85 |  | C[C@]1(C(=O)N[C@@H]2C[C@H]([C@H]3CC[C@H](C(=O)O)CC3)Oc3cc(OC(F)F)ccc32)COc2cc3c(cc21)OC(F)(F)O3 [Example 160, trans-4-[(2R,4R)-7-(difluoromethoxy)-4-{[(7R)-2,2-difluoro-7-methyl-6,7-dihydro-2H-furo[2,3-f][1,3]benzodioxole-7-carbonyl]amino}-3,4-dihydro-2H-1-benzopyran-2-yl]cyclohexane-1-carboxylic acid]
4 | 6.03 | 114 | 6.61 | 83 |  | C[C@]1(C(=O)N[C@H]2C[C@@H](c3ccccc3)O[C@@H](c3ccc(C(=O)O)cc3)C2)COc2cc3c(cc21)OC(F)(F)O3 (single isomer, unassigned) [Example 44]
5 | 7.05 | 127 | 7.89 | 99 |  | C[C@]1(C(=O)N[C@@H]2C[C@H](c3ccc(CO)cn3)Oc3cc(OC(F)(F)F)ccc32)COc2cc3c(cc21)OC(F)(F)O3 [Example 177, (7R)-2,2-difluoro-N-[(2R,4R)-2-[5-(hydroxymethyl)pyridin-2-yl]-7-(trifluoromethoxy)-3,4-dihydro-2H-1-benzopyran-4-yl]-7-methyl-6,7-dihydro-2H-furo[2,3-f][1,3]benzodioxole-7-carboxamide]
6 | 6.37 | 142 | 6.66 | 105 |  | COc1ccc2c(c1)O[C@@H](c1ccc(C(=O)O)cc1)C[C@H]2NC(=O)[C@]1(C)CCc2c1ccc1c2OCO1 [Example 46, 4-[(2R,4R)-7-methoxy-4-{[(6R)-6-methyl-7,8-dihydro-2H,6H-indeno[4,5-d][1,3]dioxole-6-carbonyl]amino}-3,4-dihydro-2H-1-benzopyran-2-yl]benzoic acid]
7 | 7.22 | 114 | 7.80 | 88 |  | COc1ccc2c(c1)O[C@@H](c1ccc(C(=O)NCC(C)(C)O)cn1)C[C@H]2NC(=O)[C@@]1(C)COc2cc3c(cc21)OC(F)(F)O3 [Example 214, 6-[(2R,4R)-4-{[(7R)-2,2-difluoro-7-methyl-6,7-dihydro-2H-furo[2,3-f][1,3]benzodioxole-7-carbonyl]amino}-7-methoxy-3,4-dihydro-2H-1-benzopyran-2-yl]-N-(2-hydroxy-2-methylpropyl)pyridine-3-carboxamide]
8 | 6.62 | 172 |  |  | 100 | Cc1ccc(NC(=O)[C@@]2(C)COc3cc4c(cc32)OC(F)(F)O4)nc1-c1ccc(C(=O)O)cc1 [Example 83, 4-(6-{[(7R)-2,2-difluoro-7-methyl-6,7-dihydro-2H-furo[2,3-f][1,3]benzodioxole-7-carbonyl]amino}-3-methylpyridin-2-yl)benzoic acid]
9 | 6.15 | 120 | 7.70 | 86 |  | C[C@]1(C(=O)N[C@@H]2C[C@H]([C@H]3CC[C@@H](C(=O)O)CC3)Oc3cc(OC(F)(F)F)ccc32)COc2cc3c(cc21)OC(F)(F)O3 [Example 162, cis-4-[(2R,4R)-4-{[(7R)-2,2-difluoro-7-methyl-6,7-dihydro-2H-furo[2,3-f][1,3]benzodioxole-7-carbonyl]amino}-7-(trifluoromethoxy)-3,4-dihydro-2H-1-benzopyran-2-yl]cyclohexane-1-carboxylic acid]
10 | 7.10 | 117 | 7.39 | 82 |  | COc1ccc2c(c1)O[C@@H](c1ccc(C(=O)N3CCN(CCO)CC3)cn1)C[C@H]2NC(=O)[C@@]1(C)COc2cc3c(cc21)OC(F)(F)O3 [Example 213, (7R)-2,2-difluoro-N-[(2R,4R)-2-{5-[4-(2-hydroxyethyl)piperazine-1-carbonyl]pyridin-2-yl}-7-methoxy-3,4-dihydro-2H-1-benzopyran-4-yl]-7-methyl-6,7-dihydro-2H-furo[2,3-f][1,3]benzodioxole-7-carboxamide]
11 | 5.94 | 82 |  |  | 61 | CC1(C(=O)Nc2cc(-c3ccccc3)nn(C[C@@H](O)CO)c2=O)COc2cc3c(cc21)OC(F)(F)O3 (stereo partly drawn) [Example 25, N-{2-[(2R)-2,3-dihydroxypropyl]-3-oxo-6-phenyl-2,3-dihydropyridazin-4-yl}-2,2-difluoro-7-methyl-6,7-dihydro-2H-furo[2,3-f][1,3]benzodioxole-7-carboxamide]
12 | 6.47 | 153 | 6.80 | 89 |  | COc1ccc2c(c1)O[C@@H](c1ccc(C(=O)O)nc1)C[C@H]2NC(=O)[C@@]1(C)COc2cc3c(cc21)OC(F)(F)O3 [Example 146, 5-[(2R,4R)-4-{[(7R)-2,2-difluoro-7-methyl-6,7-dihydro-2H-furo[2,3-f][1,3]benzodioxole-7-carbonyl]amino}-7-methoxy-3,4-dihydro-2H-1-benzopyran-2-yl]pyridine-2-carboxylic acid]
13 | 7.15 | 112 | 7.68 | 87 |  | COc1ccc2c(c1)O[C@@H](c1ccc(C(=O)NCC(O)CO)cn1)C[C@H]2NC(=O)[C@@]1(C)COc2cc3c(cc21)OC(F)(F)O3 (stereo partly drawn) [Example 243, 6-[(2R,4R)-4-{[(7R)-2,2-difluoro-7-methyl-6,7-dihydro-2H-furo[2,3-f][1,3]benzodioxole-7-carbonyl]amino}-7-methoxy-3,4-dihydro-2H-1-benzopyran-2-yl]-N-(2,3-dihydroxypropyl)pyridine-3-carboxamide]
